This is an account of results in patent US20040013649A1, “Cancer vaccines and methods of using the same” (Inex Pharmaceuticals Corporation, priority 2002, published 2004).

Entries after “also recorded” stand apart in the source; their conditions may differ.

Series [1] relates to IL-12, IL-6, IFN-γ and MCP-1. Kind of series: plasma cytokine levels after i.v. injection. The series is classed as in vivo, ICR mice. The procedure: As noted above, with non-lipid encapsulated oligonucleotides the backbone is traditionally modified so as to reduce molecular degradation by nucleases. However, on encapsulation, such a modification is no longer required to prevent degradation. To establish the effect of a different phosphate backbone on cytokine stimulation induced by lipid encapsulation, mice were injected with oligonucleotides having both PO and PS backbones, and cytokine stimulation was measured over a series of points in time (as shown in FIG. 6 and 7B) and over a sliding dosage scale as shown in FIG. 7A. In this experiment ICR mice were injected i.v. with a 20 mg ODN/kg dose of free PO ODN1, encapsulated PO-ODN1 and encapsulated PS-ODN1. […] Cytokine stimulation is generally indicative of a cellular immune response as is a chemokine response in MCP-1. Oligonucleotides were encapsulated in a lipid particle composed of DSPC:Chol:DODAP:PEG-CER14 in a ratio of 20:45:25:10.

In series [2] the test system is leukocytes bearing the activation marker CD69. The experiment in a line: in vitro stimulation of CD69 on leukocytes in mouse whole blood. The series is classed as cell-based. To be noted: oligonucleotide encapsulated in POPC:CHOL:DODMA:PEGDMG 20:45:25:10. The procedure: (§1) CD69 is a cell activation marker, which quantifies the activation of NK cells, B cells and monocytes. Expression of CD69 on NK cells indicates cell activation and production of IFN-γ, which is important to inducing a Th-1 immune response. Free and encapsulated ODN1 and 2 were tested in vitro and in vivo for their ability to induce CD69 expression. A dose of 0.1 mg/ml of ODN2 and 10 mg/ml ODN1 were used in vitro and 10 mg/kg of ODN2 and 20 mg/kg of ODN1 in vivo. Each oligonucleotide was encapsulated in a lipid particle composed of POPC:CHOL:DODMA:PEGDMG in a ratio of 20:45:25:10.
FIG. 1 illustrates the in vitro stimulation of leukocytes bearing the activation marker CD69 from treating mouse whole blood with free oligonucleotides and encapsulated oligonucleoties, specifically ODN1 and 2. When mouse whole blood was treated in vitro with free oligonucleotides there was a dose responsive increase in the amount of CD69 positive B-cells, monocytes and to some extent, NK cells, according to the amount of free oligonucleotide used 15 hours after treatment. […] However, when these same oligonucleotides were encapsulated in a lipid vesicle, the in vitro stimulation of CD69 production on these same cell types was reduced or abolished altogether.

Series [3] relates to E.G7-OVA. The experiment in a line: prophylactic efficacy of OVA / OVA257-264 vaccination, E.G7-OVA model. The series is classed as in vivo, C57/BL6 mice. On the set-up: anti-tumor activity / antigen specific efficacy / adjuvant activity following prophylactic vaccination: dose or concentration left out as unconfirmed. To be noted: for antigen specific efficacy / adjuvant activity following prophylactic vaccination: free or encapsulated ODN 1 mixed with OVA or OVA257-264, SC. The procedure:
Vaccinations. B6 mice were vaccinated subcutaneously (SC) with […] per injection. Dosing schedules were either q7dx2 or q4dx4 and are indicated in the individual figure legends. CFA mixtures were very viscous and had to be given with a larger gauge syringe. For humoral studies, a prime (day 0) and boost (day 14) strategy was used and blood samples were collected at various times by tail nicking.
Efficacy studies. E.G7-OVA or EL-4 thymoma cell lines were used throughout the study. These cells were cultured in vitro according to established methods. For tumor studies, 2.5×106 E.G7-OVA cells were injected subcutaneously in […] of PBS containing 1% FCS. Tumor measurements were made by repeated perpendicular measurements of tumor dimensions and using the formula: […]
Full-length OVA and the immunodominant cytotoxic T lymphocyte (CTL) peptide epitope (OVA257-264) were used to evaluate cell mediated immune responses and the prophylactic and therapeutic efficacy of OVA vaccination against the E.G7-OVA transfected cell line, using LNA both as an adjuvant and as the basis for a cancer vaccine formulation. LNA formulations for this experiment were prepared using DSPC:Chol:DODAP:PEGCer14 at a ration of 25:45:20:10
The anti-tumor activity of OVA and OVA257-264 were examined against the murine thymoma cell line, E.G7-OVA, implanted subcutaneously (SC) in C57/BL6 mice. […] Given the activity observed with the protein or peptide alone, this dose and schedule represents a useful model to evaluate adjuvants designed to boost the immune response against OVA and/or OVA257-264.
To examine LNA formulations as adjuvants, the impact of three variables were evaluated on vaccination and efficacy in the prophylactic E.G7-OVA model: (1) the activity of free vs. encapsulated ODN 1, (2) phosphodiester (PO) vs phosphorothioate (PS) ODN, and (3) full-length OVA protein vs single-epitope peptide OVA257-264 (FIGS. 30A and B). In this set of studies, free and encapsulated ODN 1 was simply mixed with antigen and administered SC near the nape of the neck. ODN and antigen doses in these studies were […], respectively.

The subject of another series is B16 cells. The experiment in a line: TRP-2 peptide vaccination, B16 pulmonary metastases. To be noted: SC weekly ×3, then B16 cells IV. The series is classed as in vivo, mice. The procedure:
TRP-2 and gp100 studies were conducted using the B16/BL6 murine melanoma model. B16 cells (1.0×105) were injected IV in a volume of […]. Typically, animals were vaccinated weekly for 2-3 injections and B16 cells were then administered 1-2 days after the final vaccination. Animals were terminated between days 14-18 post-B16 injection, lungs were removed, and metastases were counted using a stereomicroscope.
TRP-2 peptide was mixed with various adjuvant formulations and was administered SC weekly (×3), followed by an IV administration of B16 cells, which aggressively seed to the lung to form numerous micro metastases. […] CFA is a balanced Th1/Th2 and gave a modest response (mean=46), consistent with the E.G7-OVA studies.

For series [4], the system named is leukocytes bearing the activation marker CD69. The experiment in a line: in vivo stimulation of the CD69 marker after injection. On the set-up: species or system ICR mice. To be noted: lipid encapsulated oligonucleotide; 10 mg/kg ODN2, 20 mg/kg ODN1; 16 and 24 hours after injection. The procedure:
as §1
When the same oligonucleotides were tested in vivo, however, surprising results were obtained. FIG. 2 illustrates that in vivo treatment of ICR mice by injection with encapsulated or free oligonucleotides produces results that are contrary to those obtained in vitro.

The next series relates to dendritic cells. The experiment in a line: expansion of dendritic cells (CD11c, DEC205) in spleen, blood and lymph nodes. The series is classed as in vivo, ICR mice. To be noted: lipid encapsulated; single i.v. injection 20 mg/kg; versus PBS control = 100%. The procedure:
ICR mice were immunized with a single intravenous injection of encapsulated oligonucleotides at a dose of 20 mg/kg and the control ICR mouse was injected with PBS. […] Each of these markers are specific to dendritic cells though they may represent different cell sub-populations. In each of FIGS. 4 and 5 the control was plotted as equivalent to 100% and the effect of ODN1m for each backbone configuration was plotted as a percentage of that control.

The subject of series [5] is EG.7 Ova expressing tumor cells. Kind of series: prophylactic anti-tumor efficacy, EG7-OVA tumor model, q7d×3. The series is classed as in vivo, C57BI/6 mice. The procedure:
Efficacy studies. E.G7-OVA or EL-4 thymoma cell lines were used throughout the study. These cells were cultured in vitro according to established methods. […] Tumor measurements were made by repeated perpendicular measurements of tumor dimensions and using the formula: […]
Anti-tumor efficacy induced by subcutaneous immunization was assessed in C57BI/6 (5 animals per group) in a prophylactic immunization model. Mice were immunized subcutaneously with 3 injections on a q7d×3 dosing regimen on Days 0, 7 and 14 at a dose of 100 μg oligonucleotide and 20 μg of OVA antigen dose. […] Mice were monitored 3 times weekly to assess tumor growth and weight gain. Control mice were injected with one of PBS or HBS and […] of OVA antigen on the same schedule described above. Oligonucleotides were encapsulated in a lipid particle having a lipid composition of one of POPC: CHOL: DODAP:PEGCer14 or DSPC: CHOL: DODAP:PEGCer14 each in a ratio of 25:45:20:10. All comparisons of methylated and unmethylated oligonucleotides were done using like lipid particles. Results from these efficacy experiments are detailed in FIGS. 12-15, 18-21, and 25-28. Day 0 on each of the Figures is the day each animal was challenged with the tumor.

Series [6] has as its system E.G7-OVA. The experiment in a line: therapeutic efficacy of OVA vaccination, established E.G7-OVA tumors. The series is classed as in vivo, B6 mice. To be noted: treatment q4d×4 once tumors had reached ~250 mm3. From the text:
Currently, the clinical objective is to generate a therapeutic host immune responses that can reduce the progression of established cancers. To evaluate the effect of vaccination on therapeutic efficacy in the E.G7-OVA model, B6 mice were implanted with E.G7-OVA cells and were subsequently treated with OVA, OVA +ODN 1 or OVA +LNA/ODN 1 on a q4d×4 schedule once the tumors had reached ˜250 mm3.

On to “ODN1: 5′-TAACGTTGAGGGGCAT-3, SEQ ID NO: 2, human c-myc (tested as both phosphodiester and phosphorothioate backbone forms, lipid-encapsulated, further chemistry not given here)”, for which the “late IFN-γ peak” value in series [1] (encapsulated PS oligonucleotides, 6 days after treatment) is “produced a strong IFN-γ peak; also recorded: produced an IFN-gamma peak”. In series [1] (encapsulated in DSPC:Chol:DODAP:PEG-CER14 20:45:25:10, i.v.), the “stimulation of plasma IL-6, IL-12, IFN-γ and MCP-1” value is on record as “increased IL-12 induction”. Also, the “stimulation of CD69 positive B-cells, monocytes and NK cells” value in series [2] is “reduced the stimulation of CD69 on NK cells below the control level”. Further, the “efficacy of ODN sequences” value in the series on E.G7-OVA [3] (LNA (encapsulated) forms, FIG. 35) is “strongest responses”. Also, in the series with E.G7-OVA [3], the “antigen specific efficacy / adjuvant activity following prophylactic vaccination” value was “encapsulation of ODN 1 resulted in increased antigen specific efficacy”. Also, the figures for the “mean number of metastases” value in the series with B16 cells (TRP-2 peptide alone or mixed with free ODN or other adjuvant) and with B16 cells (encapsulated ODN (LNA) mixed with TRP-2 peptide) were 37 and 6, respectively. The “stimulation of the CD69 marker in vivo” value in series [4] is reported as “able to stimulate production of CD69 on NK cells”. The “expansion of CD11c positive dendritic cells” value in the series with dendritic cells is “stimulated the expansion of CD11c positive cells in spleen and whole blood”. In the series on dendritic cells, the “expansion of DEC205 positive dendritic cells” value was “stimulate the expansion of DEC205 positive cells in spleen, whole blood and lymph node”. For the same molecule, the “reduction in tumor growth” value in series [5] (free ODN, 100 μg ODN + 20 μg OVA s.c. q7d×3, tumor challenge Day 21) is given as “showed a greater reduction in tumor growth than their methylated counterparts”; in series [5] (lipid encapsulated ODN, PO backbone, 100 μg ODN + 20 μg OVA s.c. q7d×3), “lost its efficacy”. For the same molecule, the “number of animals remaining in the study” value in series [5] (lipid encapsulated ODN, FIG. 19B) is reported as “essentially identical throughout the study”.

B1: OVA: Hen egg albumin (ovalbumin), full-length protein, model tumor-associated antigen (protein, UniProt P01012 1-386, looked up)
chain: MGSIGAASMEFCFDVFKELKVHHANENIFYCPIAIMSALAMVYLGAKDSTRTQINKVVRFDKLPGFGDSIEAQCGTSVNVHSSLRDILNQITKPNDVYSFSLASRLYAEERYPILPEYLQCVKELYRGGLEPINFQTAADQARELINSWVESQTNGIIRNVLQPSSVDSQTAMVLVNAIVFKGLWEKAFKDEDTQAMPFRVTEQESKPVQMMYQIGLFRVASMASEKMKILELPFASGTMSMLVLLPDEVSGLEQLESIINFEKLTEWTSSNVMEERKIKVYLPRMKMEEKYNLTSVLMAMGITDVFSSSANLSGISSAESLKISQAVHAAHAEINEAGREVVGSAEAGVDAASVSEEFRADHPFLFCIKHIATNAVLFFGRCVSP
modifications: full-length
notes: Hen egg albumin (ovalbumin), full-length protein, model tumor-associated antigen
As to B1, the anti-tumor activity entry in the series with E.G7-OVA [3] (antigen alone, once weekly vaccination, 2 injections) is reported as “Anti-tumor activity was observed”. The “antigen specific efficacy / adjuvant activity following prophylactic vaccination” value with E.G7-OVA [3] was “dramatically improved immune responses and efficacy”. In addition, the “tumor growth of established tumors” value with E.G7-OVA [6] was “no delay in tumor growth”.
